Experimental data reported in patent US9510598B2, “Nitrogen-containing heterocyclic compounds for plant disease control” (BAYER CROPSCIENCE AG, priority 2012, dated 2016).
“And” between values parts separate entries of the source, which are not always exact repeats. Identical values can stand only once. Like-named read-outs stand apart in the source and are kept apart here.

Key:
[1] = test system: Septoria tritici; test: In vivo preventive test on Septoria tritici (leaf spot on wheat); details: 500 ppm; wheat plants sprayed 24 hours before contamination; grading 21 to 28 days after contamination vs control plants
In short: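 Scipion wheat at 1-leaf stage sprayed with compound, controls receiving acetone/tween/DMSO/water vehicle; 24 h later leaves inoculated with Septoria tritici spores (500 000 spores per ml). Efficacy (%) graded versus control plants 21 to 28 days after contamination.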

[2] = test system: Sphaerotheca fuliginea; test: In vivo preventive test on Sphaerotheca fuliginea (powdery mildew on cucurbits); details: 500 ppm; gherkin plants sprayed 24 hours before contamination; grading 12 days after contamination vs control plants
In short: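 Preventive spray of gherkin plants at Z11 cotyledon stage, grown at 24° C; inoculation 24 hours later with Sphaerotheca fuliginea spores (100 000 spores per ml). Efficacy graded 12 days post-inoculation as % versus solvent-treated control plants.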

[3] = type: physicochemical
[4] = test system: Phytophthora infestans; type: in vivo; details: 500 ppm; tomato plants sprayed 24 hours before contamination; grading 5 days after contamination vs control plants
[5] = test system: Botrytis cinerea; test: In vivo preventive test on Botrytis cinerea (grey mould); details: 500 ppm; gherkin plants sprayed 24 hours before contamination; grading 4-5 days after contamination vs control plants
In short: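 Gherkin plants ("Vert petit de Paris") sprayed with compound at Z11 cotyledon stage, then inoculated 24 h later with B. cinerea spores (50 000/ml) in PDB/fructose/NH4NO3/KH2PO4 nutrient solution. Incubated at 17 °C, 80% RH; % efficacy versus solvent-treated controls graded 4–5 days after contamination.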

[6] = Table 3, formula (V); method [a]: pH 2.7, 0.1% formic acid in water / acetonitrile gradient
Experimental: Measurement of log P values was performed according EEC directive 79/831 Annex V.A8 by HPLC (High Performance Liquid Chromatography) on reversed phase columns with the following methods: ^[a]

[7] = method [a]: HPLC/LC-MS on reversed phase at pH 2.7, 0.1% formic acid in water / acetonitrile, gradient 10% to 95% acetonitrile
[8] = method [a]: HPLC/LC-MS on reversed phase at pH 2.7, 0.1% formic acid in water / acetonitrile, linear gradient 10% to 95% acetonitrile

SMILES: C#Cc1cnc2ccc(C3=NOC(C)(C(=O)NC(C)COC)C3)cc2c1 (racemic) [compound 365]
- % of efficacy (protection) [1]: 100%
- % of efficacy (protection) [2]: 98%
- log P [3, 7]: 2.26[a]
- % of efficacy (protection) [4]: 79%

SMILES: CC#Cc1cnc2ccc(C3=NOC(C)(C(=O)NC(C)C)C3)cc2c1 (racemic) [compound 381]
- % of efficacy (protection) [1]: 97%
- % of efficacy (protection) [2]: 94%
- log P [3, 7]: 2.73[a]
- % of efficacy (protection) [4]: 95%

SMILES: CCn1cc(CNC(=O)C2(OC)CC(c3ccc4ncc(I)cc4c3)=NO2)c(C)n1 (racemic) [compound 437]
- % of efficacy (protection) [2]: 100%
- log P [3, 7]: 2.44[a]
- % of efficacy (protection) [4]: 70%

SMILES: C#Cc1cnc2ccc(C3=NOC(CC)(C(=O)NCc4cn(CCC)nc4C)C3)cc2c1 (racemic) [compound 445]
- % of efficacy (protection) [1]: 94%
- % of efficacy (protection) [5]: 93%
- % of efficacy (protection) [2]: 94%
- log P [3, 7]: 2.64[a]
- % of efficacy (protection) [4]: 100%

SMILES: CCCn1cc(CNC(=O)C2(OC)CC(c3ccc4ncc(I)cc4c3)=NO2)c(C)n1 (racemic) [compound 449]
- % of efficacy (protection) [1]: 98%
- % of efficacy (protection) [5]: 99%
- % of efficacy (protection) [2]: 100%
- log P [3, 7]: 2.73[a]
- % of efficacy (protection) [4]: 100%

SMILES: CCCn1cc(CNC(=O)C2(C)CC(c3cc(Cl)c4ncc(Br)cc4c3)=NO2)c(C)n1 (racemic) [compound 549]
- % of efficacy (protection) [1]: 97%
- % of efficacy (protection) [5]: 83%
- log P ([3]; HPLC on reversed phase columns, method [a]: pH 2.7, 0.1% formic acid in water / acetonitrile, linear gradient 10% to 95% acetonitrile): 3.06[a]
- % of efficacy (protection) [4]: 96%

SMILES: ON=Cc1cc(F)c2ncc(Br)cc2c1 [V-23]
- Log P [6]: 2.08[a]

SMILES: C#Cc1cnc2ccc(C3=NOC(C)(C(=O)NC(C)C)C3)cc2c1 (stereo not shown) [compound 40]
- % of efficacy (protection) [1]: 100%
- % of efficacy (protection) [5]: 100%
- % of efficacy (protection) [2]: 100%
- log P [3, 8]: 2.28^[a]
- % of efficacy (protection) [4]: 97%

SMILES: CCn1cc(CNC(=O)C2(CC)CC(c3ccc4ncc(Br)cc4c3)=NO2)c(C)n1 (stereo not shown) [compound 70]
- % of efficacy (protection) [1]: 100%
- % of efficacy (protection) [5]: 93%
- % of efficacy (protection) [2]: 100%
- log P [3, 8]: 2.66^[a]
- % of efficacy (protection) [4]: 82%

SMILES: C#Cc1cnc2ccc(C3=NOC(C)(C(=O)NCc4cn(CCC)nc4C)C3)cc2c1 (stereo not shown) [compound 83]
- % of efficacy (protection) [1]: 92%
- % of efficacy (protection) [5]: 100%
- % of efficacy (protection) [2]: 97% and 98%
- log P [3, 8]: 2.39^[a]
- % of efficacy (protection) [4]: 97%

SMILES: C#Cc1cnc2ccc(C3=NOC(C)(C(=O)NCc4c(C)nn(CC)c4C)C3)cc2c1 (stereo not shown) [compound 87]
- % of efficacy (protection) [5]: 97%
- % of efficacy (protection) [2]: 89%
- log P [3, 8]: 2.08^[a]
- % of efficacy (protection) [4]: 100%

SMILES: CCn1nc(C)c(CNC(=O)C2(C)CC(c3ccc4ncc(Br)cc4c3)=NO2)c1C (stereo not shown) [compound 88]
- log P [3, 8]: 2.32^[a]
- % of efficacy (protection) [4]: 100%

SMILES: CCn1ncc(CNC(=O)C2(C)CC(c3ccc4ncc(Br)cc4c3)=NO2)c1C (stereo not shown) [compound 100]
- % of efficacy (protection) [1]: 75%
- % of efficacy (protection) [5]: 97%
- % of efficacy (protection) [2]: 94%
- log P [3, 8]: 2.37^[a]
- % of efficacy (protection) [4]: 98%

SMILES: C#Cc1cnc2ccc(C3=NOC(C)(C(=O)NCc4cnn(CC)c4)C3)cc2c1 (stereo not shown) [compound 181]
- % of efficacy (protection) [5]: 92%
- % of efficacy (protection) [2]: 98%
- log P [3, 8]: 2.04^[a]
- % of efficacy (protection) [4]: 92%

SMILES: CCn1cc(CNC(=O)C2(C)CC(c3ccc4ncc(Br)cc4c3)=NO2)cn1 (stereo not shown) [compound 182]
- % of efficacy (protection) [5]: 99%
- % of efficacy (protection) [2]: 98%
- log P [3, 8]: 2.27^[a]
- % of efficacy (protection) [4]: 83%

SMILES: C#Cc1cnc2ccc(C3=NOC(C)(C(=O)NCc4c(C)nn(C)c4C)C3)cc2c1 (stereo not shown) [compound 183]
- % of efficacy (protection) [1]: 86%
- log P [3, 8]: 1.91^[a]
- % of efficacy (protection) [4]: 86%

SMILES: C#Cc1cnc2ccc(C3=NOC(C)(C(=O)NCc4ccnc(N5CCOCC5)c4)C3)cc2c1 (stereo not shown) [compound 194]
- log P [3, 8]: 1.36^[a]
- % of efficacy (protection) [4]: 94%

SMILES: C#Cc1cnc2ccc(C3=NOC(C)(C(=O)NCc4cnn(CC)c4C)C3)cc2c1 (stereo not shown) [compound 195]
- % of efficacy (protection) [1]: 100%
- % of efficacy (protection) [5]: 97%
- % of efficacy (protection) [2]: 98%
- log P [3, 8]: 2.11^[a]
- % of efficacy (protection) [4]: 100%
